ChEMBL document CHEMBL2413072, “Synthesis and in vitro anticancer studies of novel C-2 arylidene congeners of lantadenes” (2013)

Tests used:
Assay type in all cases: functional
[1] = system: SW-620; experiment: Growth inhibition of human SW620 cells by sulforhodamine B assay
[2] = Growth inhibition of human HCC2998 cells by sulforhodamine B assay
[3] = system: A549; experiment: Growth inhibition of human A549/ATCC cells by sulforhodamine B assay
[4] = Growth inhibition of human Hs 578T cells assessed as growth inhibition at 10 uM by sulforhodamine B assay; conditions: read-out: GI
[5] = system: UO-31; experiment: Growth inhibition of human UO31 cells assessed as growth inhibition at 10 uM by sulforhodamine B assay; conditions: read-out: GI
[6] = system: SN12C; experiment: Growth inhibition of human SN12C cells assessed as growth inhibition at 10 uM by sulforhodamine B assay; conditions: read-out: GI
[7] = system: RXF 393; experiment: Growth inhibition of human RXF393 cells assessed as growth inhibition at 10 uM by sulforhodamine B assay; conditions: read-out: GI
[8] = system: ACHN; experiment: Growth inhibition of human ACHN cells assessed as growth inhibition at 10 uM by sulforhodamine B assay; conditions: read-out: GI
[9] = system: OVCAR-8; experiment: Growth inhibition of human OVCAR8 cells assessed as growth inhibition at 10 uM by sulforhodamine B assay; conditions: read-out: GI
[10] = system: CCRF-CEM; experiment: Growth inhibition of human CCRF-CEM cells assessed as cell growth at 10 uM by sulforhodamine B assay; conditions: read-out: Activity
[11] = system: M14; experiment: Growth inhibition of human M14 cells assessed as growth inhibition at 10 uM by sulforhodamine B assay; conditions: read-out: GI
[12] = system: LOX IMVI; experiment: Growth inhibition of human LOXIMVI cells assessed as growth inhibition at 10 uM by sulforhodamine B assay; conditions: read-out: GI
[13] = system: SF-268; experiment: Growth inhibition of human SF268 cells assessed as growth inhibition at 10 uM by sulforhodamine B assay; conditions: read-out: GI
[14] = system: CCRF-CEM; experiment: Growth inhibition of human CCRF-CEM cells assessed as growth inhibition at 10 uM by sulforhodamine B assay; conditions: read-out: GI
[15] = system: T47D; experiment: Growth inhibition of human T47D cells assessed as cell growth at 10 uM by sulforhodamine B assay; conditions: read-out: Activity
[16] = system: BT-549; experiment: Growth inhibition of human BT549 cells assessed as cell growth at 10 uM by sulforhodamine B assay; conditions: read-out: Activity
[17] = system: MCF7; experiment: Growth inhibition of human MCF7 cells assessed as cell growth at 10 uM by sulforhodamine B assay; conditions: read-out: Activity
[18] = system: RXF 393; experiment: Growth inhibition of human RXF393 cells assessed as cell growth at 10 uM by sulforhodamine B assay; conditions: read-out: Activity
[19] = system: A498; experiment: Growth inhibition of human A498 cells assessed as cell growth at 10 uM by sulforhodamine B assay; conditions: read-out: Activity
[20] = system: LOX IMVI; experiment: Growth inhibition of human LOXIMVI cells assessed as cell growth at 10 uM by sulforhodamine B assay; conditions: read-out: Activity
[21] = system: HCT-116; experiment: Growth inhibition of human HCT116 cells assessed as cell growth at 10 uM by sulforhodamine B assay; conditions: read-out: Activity
[22] = system: NCI-H460; experiment: Growth inhibition of human NCI-H460 cells assessed as cell growth at 10 uM by sulforhodamine B assay; conditions: read-out: Activity
[23] = system: NCI-H226; experiment: Growth inhibition of human NCI-H226 cells assessed as cell growth at 10 uM by sulforhodamine B assay; conditions: read-out: Activity
[24] = system: SR; experiment: Growth inhibition of human SR cells assessed as cell growth at 10 uM by sulforhodamine B assay; conditions: read-out: Activity
[25] = system: SK-MEL-28; experiment: Growth inhibition of human SK-MEL-28 cells assessed as cell growth at 10^-8 M by sulforhodamine B assay; conditions: read-out: Activity
[26] = system: SF-539; experiment: Growth inhibition of human SF539 cells assessed as cell growth at 10^-8 M by sulforhodamine B assay; conditions: read-out: Activity
[27] = system: HOP-92; experiment: Growth inhibition of human HOP92 cells assessed as cell growth at 10^-8 M by sulforhodamine B assay; conditions: read-out: Activity
[28] = system: HOP-62; experiment: Growth inhibition of human HOP62 cells assessed as cell growth at 10^-8 M by sulforhodamine B assay; conditions: read-out: Activity
[29] = system: OVCAR-3; experiment: Growth inhibition of human OVCAR3 cells by sulforhodamine B assay
[30] = system: UACC-62; experiment: Growth inhibition of human UACC62 cells by sulforhodamine B assay
[31] = system: SF-539; experiment: Growth inhibition of human SF539 cells by sulforhodamine B assay
[32] = system: IGROV-1; experiment: Growth inhibition of human IGROV1 cells assessed as cell growth at 10^-4 M by sulforhodamine B assay; conditions: read-out: Activity
[33] = system: T47D; experiment: Growth inhibition of human T47D cells assessed as cell growth at 10^-6 M by sulforhodamine B assay; conditions: read-out: Activity
[34] = system: DU-145; experiment: Growth inhibition of human DU145 cells assessed as cell growth at 10^-6 M by sulforhodamine B assay; conditions: read-out: Activity
[35] = system: 786-0; experiment: Growth inhibition of human 786-0 cells assessed as cell growth at 10^-6 M by sulforhodamine B assay; conditions: read-out: Activity
[36] = system: OVCAR-5; experiment: Growth inhibition of human OVCAR5 cells assessed as cell growth at 10^-6 M by sulforhodamine B assay; conditions: read-out: Activity
[37] = system: SW-620; experiment: Growth inhibition of human SW620 cells assessed as cell growth at 10^-6 M by sulforhodamine B assay; conditions: read-out: Activity
[38] = system: HT-29; experiment: Growth inhibition of human HT-29 cells assessed as cell growth at 10^-6 M by sulforhodamine B assay; conditions: read-out: Activity
[39] = system: NCI-H322M; experiment: Growth inhibition of human NCI-H322M cells assessed as cell growth at 10^-6 M by sulforhodamine B assay; conditions: read-out: Activity
[40] = system: T47D; experiment: Growth inhibition of human T47D cells assessed as cell growth at 10^-7 M by sulforhodamine B assay; conditions: read-out: Activity
[41] = system: RXF 393; experiment: Growth inhibition of human RXF393 cells assessed as cell growth at 10^-7 M by sulforhodamine B assay; conditions: read-out: Activity
[42] = system: BT-549; experiment: Growth inhibition of human BT549 cells assessed as cell growth at 10^-8 M by sulforhodamine B assay; conditions: read-out: Activity
[43] = system: A498; experiment: Growth inhibition of human A498 cells assessed as cell growth at 10^-8 M by sulforhodamine B assay; conditions: read-out: Activity
[44] = read-out: LC50 (the source's name)
[45] = read-out: pLC50 (the source's name) (converted)

## CC1(C)C[C@@H](O)[C@]2(C(=O)O)CC[C@]3(C)C(=CC[C@@H]4[C@@]5(C)C/C(=C\C=C\c6ccccc6)C(=O)C(C)(C)[C@@H]5CC[C@]43C)[C@@H]2C1
[1]; read-out: GI50
  GI50: 3.39 µM
[1]; [44]
  CC50: 78.8 µM
[1]; read-out: TGI
  TGI: 15.4 µM
[1]; read-out: pGI50 (converted)
  GI50: 3.39 µM
[1]; [45]
  CC50: 79.4 µM
[1]; read-out: pTGI (converted)
  TGI: 15.5 µM
[2]; HCC 2998, read-out: GI50
  GI50: 2.95 µM
[2]; HCC 2998, read-out: LC50 (the source's name)
  CC50: 27.9 µM
[2]; HCC 2998, read-out: TGI
  TGI: 7.55 µM
[2]; HCC 2998, read-out: pGI50 (converted)
  GI50: 2.95 µM
[2]; HCC 2998, read-out: pLC50 (the source's name) (converted)
  CC50: 28.2 µM
[2]; HCC 2998, read-out: pTGI (converted)
  TGI: 7.59 µM
[3]; read-out: GI50
  GI50: 2.8 µM
[3]; [44]
  CC50: 63.4 µM
[3]; read-out: TGI
  TGI: 11.2 µM
[3]; read-out: pGI50 (converted)
  GI50: 2.82 µM
[3]; [45]
  CC50: 63.1 µM
[3]; read-out: pTGI (converted)
  TGI: 11.2 µM
[4]
  inhibition of growth at 10 µM: 41.6%
[5]
  inhibition of growth at 10 µM: 59.7%
[6]
  inhibition of growth at 10 µM: 54.5%
[7]
  inhibition of growth at 10 µM: 15.9%
[8]
  inhibition of growth at 10 µM: 58.1%
[9]
  inhibition of growth at 10 µM: 57%
[10]
  growth at 10 µM: 19.9%
[11]
  inhibition of growth at 10 µM: 27.1%
[12]
  inhibition of growth at 10 µM: 38.6%
[13]
  inhibition of growth at 10 µM: 29.3%
[14]
  inhibition of growth at 10 µM: 80.1%
[15]
  growth at 10 µM: 37.6%
[16]
  growth at 10 µM: 70%
[17]
  growth at 10 µM: 33.8%
[18]
  growth at 10 µM: 84.1%
[19]
  growth at 10 µM: 95.7%
[20]
  growth at 10 µM: 61.4%
[21]
  growth at 10 µM: 17.5%
[22]
  growth at 10 µM: 45.8%
[23]
  growth at 10 µM: 72.3%
[24]
  growth at 10 µM: 62.6%
[25]
  growth at 0.01 µM: 99%
[26]
  growth at 0.01 µM: 93%
[27]
  growth at 0.01 µM: 99%
[28]
  growth at 0.01 µM: 93%
[29]; read-out: GI50
  GI50: 2.04 µM
[29]; [44]
  CC50: 14.2 µM
[29]; read-out: TGI
  TGI: 4.81 µM
[29]; read-out: pGI50 (converted)
  GI50: 2.04 µM
[29]; [45]
  CC50: 14.1 µM
[29]; read-out: pTGI (converted)
  TGI: 4.79 µM
[30]; read-out: GI50
  GI50: 1.76 µM
[30]; [44]
  CC50: 7.84 µM
[30]; read-out: TGI
  TGI: 3.71 µM
[30]; read-out: pGI50 (converted)
  GI50: 1.78 µM
[30]; [45]
  CC50: 7.76 µM
[30]; read-out: pTGI (converted)
  TGI: 3.72 µM
[31]; read-out: GI50
  GI50: 2.86 µM
[31]; [44]
  CC50: 36.7 µM
[31]; read-out: TGI
  TGI: 10.6 µM
[31]; read-out: pGI50 (converted)
  GI50: 2.88 µM
[31]; [45]
  CC50: 36.3 µM
[31]; read-out: pTGI (converted)
  TGI: 10.7 µM
[32]
  growth at 100 µM: -59%
[33]
  growth at 1 µM: 97%
[34]
  growth at 1 µM: 101%
[35]
  growth at 1 µM: 96%
[36]
  growth at 1 µM: 93%
[37]
  growth at 1 µM: 91%
[38]
  growth at 1 µM: 99%
[39]
  growth at 1 µM: 94%
[40]
  growth at 0.1 µM: 96%
[41]
  growth at 0.1 µM: 94%
[42]
  growth at 0.01 µM: 101%
[43]
  growth at 0.01 µM: 82%

## COc1cc(/C=C2\C[C@]3(C)[C@H]4CC=C5[C@@H]6CC(C)(C)C[C@@H](O)[C@]6(C(=O)O)CC[C@@]5(C)[C@]4(C)CC[C@H]3C(C)(C)C2=O)ccc1O
[4]
  inhibition of growth at 10 µM: < 10%
[5]
  inhibition of growth at 10 µM: 24.1%
[6]
  inhibition of growth at 10 µM: 12.5%
[7]
  inhibition of growth at 10 µM: < 10%
[8]
  inhibition of growth at 10 µM: 14.4%
[9]
  inhibition of growth at 10 µM: 20.2%
[10]
  growth at 10 µM: 82%
[11]
  inhibition of growth at 10 µM: < 10%
[12]
  inhibition of growth at 10 µM: 11.6%
[13]
  inhibition of growth at 10 µM: < 10%
[14]
  inhibition of growth at 10 µM: 18%
[15]
  growth at 10 µM: 81.1%
[16]
  growth at 10 µM: 106%
[17]
  growth at 10 µM: 77.5%
[18]
  growth at 10 µM: 109%
[19]
  growth at 10 µM: 115%
[20]
  growth at 10 µM: 88.4%
[21]
  growth at 10 µM: 84.8%
[22]
  growth at 10 µM: 102%
[23]
  growth at 10 µM: 100%
[24]
  growth at 10 µM: 87.1%
